The values below come from patent publication US8058258B2, “Methods for cancer therapy and stem cell modulation” (Agency for Science, Technology and Research, priority 2006, dated 2011).

One data set concerns BT-549 cells. Briefly: Apoptotic response time course by FACS analysis. It counts as cell-based. As to conditions: BT-549, 5 μM, time course to 120 hours. Here is the method: (§1) FIG. 6A depicts an analysis of the breast cancer cell lines MCF-7, MB-468, SK-BR-3, MB-231, T47D and BT549 for an apoptotic effect of 5 μM 3-deazaneplanocin over a time frame of 120 hours. Cell death was measured by FACS analysis. Data presented are the average of three independent experiments.
(§2) Cells were trypsinised and washed with PBS and fixed in 70% ethanol and processed for propidium iodide staining and FACS analysis. For the caspase 3 activity assay and mitochondrial membrane potential detection, cells were stained with anti-active caspase 3 and JC-1, respectively, according to the manufacturer's instructions (BD Bioscience).
(§3) To extend the observation seen in MCF-7 cells, additional breast cancer cell lines were screened, including MB-468, SK-BR-3, MB-231, T47D and BT549. […] To identify the PRC2 target genes associated with the cellular sensitivity to 3-deazaneplanocin, the array analysis was performed in these breast cancer cell lines before and after 3-deazaneplanocin treatment and the expression of the 47 identified PRC2 targets profiled. It was reasoned that some the PRC2 target genes might be differentially expressed between the sensitive and resistant cell lines, which might confer the distinct sensitivity to 3-deazaneplanocin. […] Both the real time and conventional RT-PCR analysis of the 4 gene set confirmed the array data (FIGS. 6D & 6E). […]

The next data set relates to MB-231 cells. Briefly: Apoptotic response time course by FACS analysis. It counts as cell-based. As to conditions: MB-231, 5 μM, time course to 120 hours. Here is the method:
as §1, §2, §3

Another data set deals with MCF-7 cells. Briefly: Cell death / apoptosis by PI staining and flow cytometry. Format: cell-based, human. As to conditions: 5 μM; for cell death: PI staining and flow cytometry, cell line not named in the sentence (FIG. 3A). As for the experimental part:
FIG. 3A depicts the detection of cell death of a variety of cancer cells upon exposure to 3-deazaneplanocin (DZNep) compared to untreated controls cells (DMSO=dimethyl sulfoxide). Breast cancer MCF-7 and MB-468 cells, colorectal HCT116, RKO and SW480 cells were treated with 5 μm 3-deazaneplanocin for 48 and 72 h, and cell death was detected by means of propodium iodide (PI) staining and flow cytometry analysis. Shown is the average of three independent experiments.
Cell lines used in these examples were purchased from the American Type Culture Collection (Manassas, Va.). Cells were maintained in DMEM supplemented with 10% fetal bovine serum with glutamine, penicillin, and streptomycin. For drug treatment, cells were seeded the day before the drug treatment. Cells were treated with 5 μM 3-Deazaneplanocin A or 2 μM 5-aza-2′-deoxycytidine (5-AzaC; Sigma) for 72 hours and trichostatin A (TSA; Sigma) at 100 nM for 24 hours. For co-treatment of cells with 5-AzaC and TSA, 5-Aza was added for 48 hours and followed by TSA for 24 hours.
as §2
It was observed that 3-deazaneplanocin at 5 μM could induce 25% cell death at 48 hours and 45% of cell death at 72 hours, as determined by propodium iodide (PI) staining and flow cytometry analysis (FIG. 3A).
To determine whether 3-deazaneplanocin preferentially induces apoptosis in cancer cells, the apoptosis induction between MCF-7 cells and the non-cancerous breast epithelial MCF10A cells was compared for various periods of time. […] In addition, normal primary colon epithelial CC33D cells, like MCF10A cells, were also resistant to 3-deazaneplanocin treatment compared to colorectal cancer HCT116 cell, as evaluated by microscopy examination (FIGS. 3G & 3H).
Background: Flow cytometry measures light scatter and fluorescence of single cells or particles in a stream.

The subject of the next data set is SK-BR-3 cells. Nature of the data set: Apoptotic response time course by FACS analysis. It counts as cell-based, human. As to conditions: SK-BR-3, 5 μM, time course to 120 hours. As for the experimental part:
as §1, §2, §3

The subject of a further data set is T47D cells. Nature of the data set: Apoptotic response time course by FACS analysis. It counts as cell-based, human. As to conditions: 5 μM, time course to 120 hours. Here is the method:
as §1, §2, §3

In data set [1] the test system is PRC2 target genes in MCF-7, MB-468, SK-BR-3, T47D, MCF10A, MB-231, BT549. Nature of the data set: Array analysis of PRC2 targets in sensitive and resistant breast cancer cell lines. It counts as cell-based. As for the experimental part:
FIG. 6B depicts the results of array analysis in these breast cancer cell lines (MCF-7, MB-468, SK-BR-3 and T47D sensitive ? MCF10A, MB-231, BT549 resistant) before and after 3-deazaneplanocin treatment. […] Genes marked in bold are highly expressed in resistant cell lines relative to sensitive cell lines.
Total RNA was isolated from cell lines using Trizol (Invitrogen) and was converted to cDNA using an RNA Amplification kit (Ambion). The microarray hybridisation was performed using the Illumina Gene Expression BeadChip (Illumina) and data analysis was performed using GeneSpring software from Agilent Technologies. Gene expression of normal and primary breast tumor samples was performed using Affymetrix U133A GeneChips (Affymetrix, Santa Clara, Calif.) following the manufacturer's instructions. Gene expression data from individual arrays were normalized by median centering and average linkage hierarchical clustering was done using Cluster and Treeview softwares (http://rana.lbl.gov/EisenSoftware.htm). Quantitative real-time PCR was performed on a PRISM 7900 sequenced detector (Applied Biosystems) using TaqMan probes (Applied Biosystems). Samples were normalized to the levels of 18S ribosomal RNA.
as §3

The conditions of data set [2]: explored for antiviral treatment; cited from earlier work.

For `Nc1nccc2c1ncn2C1C=C(CO)C(O)C1O` (centres unmarked) [3-deazaneplanocin, 5-(4-amino-1H-imidazo[4,5-c]pyridin-1-yl)-3-(hydroxymethyl)-3-cyclopentene-1,2-diol], the “sensitivity to 3-deazaneplanocin-induced cell death” value in the data set on BT-549 cells is “highly resistant”; in the data set on MB-231 cells it was “highly resistant”; in the data set on SK-BR-3 cells, “highly susceptible”; in the data set on T47D cells, “highly susceptible”. Also, the cell death is listed as 25% with MCF-7 cells (48 hours) and 45% with MCF-7 cells (72 hours). In the data set with MCF-7 cells (MCF-7 cells, FACS), the “apoptosis induction over various periods of time” value was “progressive and marked apoptosis”. Besides, the “induction of FBXO32, LAMB3, PLAU, and PPP1R15A” value in data set [1] (four sensitive cell lines (MCF-7, MB-468, SK-BR-3, T47D)) is “commonly induced”. Moreover, in data set [1] (resistant cell lines (MCF10A, MB-231, BT549)), the “induction of the same PRC2 target genes in resistant cell lines” value is “did not undergo marked further induction”. The “induction of TGFBI, IGFBP3, TNS3 and KRT17” value in data set [1] (sensitive cell lines (MCF-7, MB-468, SK-BR-3, T47D)) is “induced in 3 out 4 sensitive cell lines”. Also, the toxicity in vivo entry in data set [2] was “minimal toxicity”.
